Assay [1] has as its target T1, Gamma-aminobutyric acid receptor subunit alpha-2 (Homo sapiens, UniProt P47869).
T1 sequence (P47869 whole entry): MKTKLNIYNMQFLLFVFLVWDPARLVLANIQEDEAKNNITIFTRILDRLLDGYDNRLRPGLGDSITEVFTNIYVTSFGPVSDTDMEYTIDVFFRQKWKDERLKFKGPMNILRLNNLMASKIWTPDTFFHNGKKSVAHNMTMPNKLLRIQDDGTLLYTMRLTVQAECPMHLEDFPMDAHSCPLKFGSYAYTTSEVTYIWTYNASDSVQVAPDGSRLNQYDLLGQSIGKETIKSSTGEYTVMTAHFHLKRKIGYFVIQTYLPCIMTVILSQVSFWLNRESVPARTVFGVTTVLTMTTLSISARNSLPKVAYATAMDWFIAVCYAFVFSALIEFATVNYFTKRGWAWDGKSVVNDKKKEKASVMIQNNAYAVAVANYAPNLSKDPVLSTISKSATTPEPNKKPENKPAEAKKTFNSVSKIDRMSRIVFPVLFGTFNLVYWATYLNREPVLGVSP
The assay is described as follows: Binding affinity to GABA-A alpha2 (unknown origin).

The target of assay [2] is T2, Gamma-aminobutyric acid receptor subunit alpha-3 (Homo sapiens) (UniProt P34903).
T2 sequence (whole entry): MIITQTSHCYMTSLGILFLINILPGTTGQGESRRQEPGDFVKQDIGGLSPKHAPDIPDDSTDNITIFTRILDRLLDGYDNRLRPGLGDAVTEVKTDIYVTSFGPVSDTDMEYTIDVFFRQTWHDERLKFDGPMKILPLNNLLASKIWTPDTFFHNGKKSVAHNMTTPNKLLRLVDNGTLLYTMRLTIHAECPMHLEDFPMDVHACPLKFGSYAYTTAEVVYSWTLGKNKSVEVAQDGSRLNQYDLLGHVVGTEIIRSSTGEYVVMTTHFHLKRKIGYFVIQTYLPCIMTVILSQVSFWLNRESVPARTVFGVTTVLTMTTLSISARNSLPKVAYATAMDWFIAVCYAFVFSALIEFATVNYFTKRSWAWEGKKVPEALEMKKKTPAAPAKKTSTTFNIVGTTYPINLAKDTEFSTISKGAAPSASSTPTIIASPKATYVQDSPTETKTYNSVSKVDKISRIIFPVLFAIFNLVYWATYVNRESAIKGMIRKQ
The assay is described as follows: Binding affinity to GABA-A alpha3 (unknown origin) assessed as reduction in DMCM induced current relative to control.

The target in assay [3] is T3, Gamma-aminobutyric acid receptor subunit alpha-1 (Homo sapiens) (UniProt P14867).
T3 sequence (whole entry): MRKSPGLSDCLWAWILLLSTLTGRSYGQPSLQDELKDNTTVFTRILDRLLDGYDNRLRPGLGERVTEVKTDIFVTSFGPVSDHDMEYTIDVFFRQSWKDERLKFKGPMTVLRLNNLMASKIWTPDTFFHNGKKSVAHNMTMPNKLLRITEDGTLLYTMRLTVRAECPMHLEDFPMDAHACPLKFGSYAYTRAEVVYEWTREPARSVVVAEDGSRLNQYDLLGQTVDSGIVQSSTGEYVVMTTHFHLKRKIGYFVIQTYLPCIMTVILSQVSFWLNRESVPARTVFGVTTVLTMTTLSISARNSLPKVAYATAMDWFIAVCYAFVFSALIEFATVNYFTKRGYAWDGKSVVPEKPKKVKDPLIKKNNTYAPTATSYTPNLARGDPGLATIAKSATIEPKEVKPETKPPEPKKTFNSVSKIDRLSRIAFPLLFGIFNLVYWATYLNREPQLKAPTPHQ
The assay can be described thus: Negative allosteric modulation of GABA-A alpha1 (unknown origin) assessed as reduction in DMCM induced current relative to control.

Assay [4] has as its target T4, Gamma-aminobutyric acid receptor subunit alpha-3 (Homo sapiens, UniProt P34903).
T4 sequence (P34903 whole entry): T2 sequence (whole entry)
The assay is described as follows: Binding affinity to GABA-A alpha3 (unknown origin).

For assay [5], the target named is T5, Gamma-aminobutyric acid receptor subunit alpha-1 (Homo sapiens, UniProt P14867).
T5 sequence (P14867 whole entry): T3 sequence (whole entry)
The assay is described as follows: Binding affinity to GABA-A alpha1 (unknown origin).

A further assay deals with Rattus norvegicus. The assay can be described thus: In vivo receptor occupancy at GABAA receptor in po dosed Crl:CD Sprague-Dawley rat assessed as brain concentration causing 50% reduction in [3H]-Ro15-4513 receptor labeling after 1 hr. The assay is classed as functional.
In assay [6] the target is T6, Gamma-aminobutyric acid receptor subunit alpha-2 (Homo sapiens) (UniProt P47869).
T6 sequence (whole entry): T1 sequence (P47869 whole entry)
The assay is described as follows: Binding affinity to GABA-A alpha2 (unknown origin) assessed as reduction in DMCM induced current relative to control.

Take `Cc1c(F)c(Nc2ccc(-c3cn(C)cn3)cn2)cc2c1ncn2CC1CC1`: the Ki came to 32 nM in assay [1], 24 nM in assay [4] and 140 nM in assay [5]. Further, the Efficacy in assay [2], in assay [3] and in assay [6] was 0% each time. Further, the Occ50 in the assay with Rattus norvegicus came to 1.9 mg/kg.

Values taken from ChEMBL document CHEMBL4402545, “Subtype Selective γ-Aminobutyric Acid Type A Receptor (GABAAR) Modulators Acting at the Benzodiazepine Binding Site: An Update” (J Med Chem, 2020).
